Measurements reported in patent US10562893B2, “Benzimidazoles derivatives as Tec kinases family inhibitors” (GB005, Inc., priority 2015, dated 2020).

Columns and labels:
Human PBMCs = assay: CD3/CD28 mediated PBMC proliferation assay; assay type: cell-based; settings: proliferation of human PBMCs stimulated with anti-CD3 and anti-CD28, 72 hours, Cell Titer-Glo
Description: Inhibition of cellular ITK was assessed by measuring proliferation of PBMCs following stimulation with anti-CD3 and anti-CD28 antibodies. Individual wells of 96 well tissue culture plates were coated with 50 μL of 5 μg/mL anti-CD3 (OKT3, eBiosciences) for 2 hours at 37° C. Human PBMCs (Stemcell Technologies catalog #70025.3) were plated in 96-well plates at a final concentration of 9.2×10e5 cells/mL in complete media (RPMI, 10% heat inactivated FBS, 55 uM β-mercaptoethanol) and pre-treated with compound curves for 30 minutes at 37° C., 5% CO2. Pre-treated cells plus compounds were transferred to washed anti-CD3 coated plates. Soluble anti-CD28 (CD28.2 eBiosciences) was added to each well at a final concentration of 2 μg/mL. The cells were placed in a humidified 37° C. incubator with 5% CO2 for 72 hours and metabolic viability was measured by quantification of ATP levels with Cell Titer-Glo (Promega catalog # G9242). Controls included unstimulated cells and vehicle alone. EC50 values (50% proliferation in the presence of compound as compared to vehicle treated controls) were calculated from dose response compound curves using GraphPad Prism Software.

[1] = tested on: Jurkat human acute T cell leukemia cells; assay: Jurkat IL-2 release assay; assay type: cell-based; settings: IL-2 release from Jurkat cells stimulated with anti-CD3 and anti-CD28, 48 hours, ELISA
Description: Inhibition of cellular ITK was assessed by measuring release of IL-2 following stimulation with anti-CD3 and anti-CD28 antibodies. Individual wells of 96 well tissue culture plates were coated with 50 μL of 10 μg/mL anti-CD3 (OKT3, eBiosciences) for 2 hours at 37° C. Jurkat human acute T cell leukemia cells (ATCC) were plated in 96-well plates at a final concentration of 9.2×10e5 cells/mL in complete media (RPMI, 10% FBS, 1.5 g/L sodium bicarbonate, 10 mM Hepes, 1 mM sodium pyruvate, 4.5 g/L glucose) and pre-treated with compound curves for 30 minutes at 37° C., 5% CO2. Pre-treated cells plus compounds were transferred to washed anti-CD3 coated plates. Soluble anti-CD28 (CD28.2 eBiosciences) was added to each well at a final concentration of 1 μg/mL. The cells were placed in a humidified 37° C. incubator with 5% CO2 for 48 hours and IL-2 release was measured using a commercial ELISA (BD Bioscience catalog #555190). Controls included unstimulated cells and vehicle alone. EC50 values (50% IL-2 release in the presence of compound as compared to vehicle treated controls) were calculated from dose response compound curves using GraphPad Prism Software.

| EC50 [1] [nM] | SMILES | EC50 (Human PBMCs) [nM] |
| --- | --- | --- |
| 10 to 100 | C=CC(=O)Nc1ccc(-n2c(NC(=O)c3ccc(C(F)F)s3)nc3cc(CN[C@@H](C)C(C)(C)C)ccc32)cc1 [Compound 4] | > 100 |
| < 10 | C=CC(=O)N(C)c1cccc(-n2c(NC(=O)c3ccc(C(F)F)s3)nc3cc(CN[C@@H](C)C(C)(C)C)ccc32)c1 [Compound 5] | 10 to 100 |
| < 10 | C=CC(=O)N(C)[C@H]1C[C@@H](n2c(NC(=O)c3ccc(C(F)F)s3)nc3cc(CN[C@@H](C)C(C)(C)C)ccc32)C1 [Compound 6] | 10 to 100 |
| 10 to 100 | C=CC(=O)Nc1cccc(-n2c(NC(=O)c3cccc(F)c3)nc3cc(CN[C@@H](C)C(C)(C)C)ccc32)c1 [Compound 7] | 10 to 100 |
| 10 to 100 | C=CC(=O)Nc1cccc(-n2c(NC(=O)c3cccc(OC)c3)nc3cc(CN[C@@H](C)C(C)(C)C)ccc32)c1 [Compound 8] | > 100 |
| 10 to 100 | C=CC(=O)Nc1cccc(-n2c(NC(=O)c3ccc(Cl)cc3)nc3cc(CN[C@@H](C)C(C)(C)C)ccc32)c1 [Compound 10] | 10 to 100 |
| 10 to 100 | C=CC(=O)Nc1cccc(-n2c(NC(=O)c3cccs3)nc3cc(CN[C@@H](C)C(C)(C)C)ccc32)c1 [Compound 13] | 10 to 100 |
| < 10 | C=CC(=O)Nc1cccc(-n2c(NC(=O)c3ccc(C(F)F)s3)nc3cc(CNC4CCCCC4)ccc32)c1 [Compound 14] | 10 to 100 |
| 10 to 100 | C=CC(=O)Nc1cccc(-n2c(NC(=O)c3cccc(Cl)c3)nc3cc(CN[C@@H](C)C(C)(C)C)ccc32)c1 [Compound 15] | 10 to 100 |
| 10 to 100 | C=CC(=O)Nc1cccc(-n2c(NC(=O)c3ccc(F)cc3)nc3cc(CN[C@@H](C)C(C)(C)C)ccc32)c1 [Compound 20] | > 100 |
| 10 to 100 | C=CC(=O)Nc1cccc(-n2c(NC(=O)c3ccc(C(F)F)s3)nc3cc(CN[C@@H](C)CC)ccc32)c1 [Compound 21] | < 10 |
| < 10 | C=CC(=O)Nc1cccc(-n2c(NC(=O)c3ccc(C(F)F)s3)nc3cc(CN[C@@H](CO)C(C)(C)C)ccc32)c1 [Compound 22] | < 10 |
| < 10 | C=CC(=O)Nc1cccc(-n2c(NC(=O)c3ccc(C(F)F)s3)nc3cc(CNCC(C)(C)C)ccc32)c1 [Compound 23] | < 10 |
| > 100 | C=CC(=O)Nc1cccc(-n2c(NC(=O)c3ccc(OC)cc3)nc3cc(CN[C@@H](C)C(C)(C)C)ccc32)c1 [Compound 24] | > 100 |
| 10 to 100 | C=CC(=O)Nc1cccc(-n2c(NC(=O)c3cccc(O)c3)nc3cc(CN[C@@H](C)C(C)(C)C)ccc32)c1 [Compound 26] | > 100 |
| < 10 | C=CC(=O)Nc1cccc(-n2c(NC(=O)c3ccc(C(F)F)s3)nc3cc(CNCC(C)(C)CO)ccc32)c1 [Compound 29] | < 10 |
| 10 to 100 | C=CC(=O)Nc1cccc(-n2c(NC(=O)c3ccc(C(F)F)s3)nc3cc(CN[C@H](C)C(C)(C)C)ccc32)c1 [Compound 30] | < 10 |
| < 10 | C=CC(=O)Nc1cccc(-n2c(NC(=O)c3ccc(C(F)F)s3)nc3cc(CN4CCCC4)ccc32)c1 [Compound 32] | < 10 |
| < 10 | C=CC(=O)Nc1ccc(F)c(-n2c(NC(=O)c3ccc(C(F)F)s3)nc3cc(CN[C@@H](C)C(C)(C)C)ccc32)c1 [Compound 33] | < 10 |
| > 100 | C=CC(=O)Nc1cc(-n2c(NC(=O)c3ccc(C(F)F)s3)nc3cc(CN[C@@H](C)C(C)(C)C)ccc32)ccc1F [Compound 34] | > 100 |
| 10 to 100 | C=CC(=O)Nc1cccc(-n2c(NC(=O)c3ccc(C(F)F)s3)nc3cc(CN[C@H]4CC[C@@H](O)CC4)ccc32)c1 [Compound 35] | < 10 |
| 10 to 100 | C=CC(=O)Nc1cccc(-n2c(NC(=O)c3ccc(C(F)F)s3)nc3cc(CN(C(C)=O)[C@@H](C)C(C)(C)C)ccc32)c1 [Compound 36] | 10 to 100 |
| > 100 | C=CC(=O)Nc1cccc(-n2c(NC(=O)c3ccc(OCc4ccccc4)cc3)nc3cc(CN[C@@H](C)C(C)(C)C)ccc32)c1 [Compound 37] | > 100 |
| 10 to 100 | C=CC(=O)Nc1cccc(-n2c(NC(=O)c3ccc(C(F)F)s3)nc3cc(CNCCCO)ccc32)c1 [Compound 39] | < 10 |
| 10 to 100 | C=CC(=O)Nc1cccc(-n2c(NC(=O)c3ccc(C(F)F)s3)nc3cc(CNCC)ccc32)c1 [Compound 40] | < 10 |

| EC50 [1] [nM] | SMILES | EC50 (Human PBMCs) [nM] |
| --- | --- | --- |
|  | C=CC(=O)Nc1cccc(-n2c(NC(=O)c3ccc(C(F)F)s3)nc3cc(CN4CCC[C@@H]4CO)ccc32)c1 [Compound 44] | < 10 |
|  | C=CC(=O)Nc1cccc(-n2c(NC(=O)c3ccc(C(F)F)s3)nc3cc(CN4CCC[C@H]4CO)ccc32)c1 [Compound 45] | < 10 |
|  | C=CC(=O)Nc1cccc(-n2c(NC(=O)c3ccc(C(F)F)s3)nc3cc(CNCCOCCOC)ccc32)c1 [Compound 46] | 10 to 100 |
|  | C=CC(=O)Nc1cccc(-n2c(NC(=O)c3ccc(C(F)F)s3)nc3cc(CN[C@H](CO)C(C)(C)C)ccc32)c1 [Compound 47] | < 10 |
|  | C=CC(=O)Nc1cccc(-n2c(NC(=O)c3ccc(C(F)F)s3)nc3cc(C(=O)N(C)C4CCCCC4)ccc32)c1 [Compound 48] | 10 to 100 |
|  | C=CC(=O)Nc1cccc(-n2c(NC(=O)c3cnn(C)c3)nc3cc(CN[C@@H](C)C(C)(C)C)ccc32)c1 [Compound 49] | > 100 |
|  | C=CC(=O)Nc1cccc(-n2c(NC(=O)c3ccc(C(F)F)s3)nc3cc(CN[C@H]4CC[C@H](OCCOC)CC4)ccc32)c1 [Compound 51] | < 10 |
|  | C=CC(=O)Nc1cccc(-n2c(NC(=O)c3ccc(C(F)F)s3)nc3cc(C(=O)NC4CCCCC4)ccc32)c1 [Compound 53] | 10 to 100 |
|  | C=CC(=O)N[C@H]1CC[C@@H](n2c(NC(=O)c3cccnc3)nc3cc(CN[C@@H](C)C(C)(C)C)ccc32)CC1 [Compound 55] | > 100 |
|  | C=CC(=O)N1CCc2ccc(-n3c(NC(=O)c4ccc(C(F)F)s4)nc4cc(CN[C@@H](C)C(C)(C)C)ccc43)cc21 [Compound 56] | 10 to 100 |
|  | C=CC(=O)N(C)[C@H]1CC[C@@H](n2c(NC(=O)c3ccc(C(F)F)s3)nc3cc(CN[C@@H](C)C(C)(C)C)ccc32)CC1 [Compound 58] | > 100 |
|  | C=CC(=O)Nc1cccc(-n2c(NC(=O)c3ccc(C(F)F)s3)nc3cc(CN[C@H]4CC[C@@H](OCCOC)CC4)ccc32)c1 [Compound 60] | < 10 |
|  | C=CC(=O)Nc1cccc(-n2c(NC(=O)c3ccc(C(F)F)s3)nc3cc(CN4C[C@@H](C)O[C@@H](C)C4)ccc32)c1 [Compound 61] | < 10 |
|  | C=CC(=O)N[C@H]1C[C@@H](n2c(NC(=O)c3ccc(C(F)F)s3)nc3cc(N(C)C(=O)C4CCCCC4)ccc32)C1 [Compound 63] | > 100 |
|  | C=CC(=O)N[C@H]1C[C@@H](n2c(NC(=O)c3ccc(C(F)F)s3)nc3cc(NC(=O)C4CCCCC4)ccc32)C1 [Compound 64] | > 100 |
|  | C=CC(=O)N[C@H]1C[C@@H](n2c(NC(=O)c3ccc(C(F)F)s3)nc3cc(C(=O)N(C)C4CCCCC4)ccc32)C1 [Compound 65] | > 100 |
|  | C=CC(=O)Nc1cccc(-n2c(NC(=O)c3ccc(C(F)F)s3)nc3cc(CNCCCOCCOCCCNC(C)=O)ccc32)c1 [Compound 66] | 10 to 100 |
|  | C=CC(=O)Nc1cccc(-n2c(NC(=O)c3ccc(C(F)F)s3)nc3cc(CO)ccc32)c1 [Compound 69] | 10 to 100 |
|  | C=CC(=O)N[C@H]1C[C@@H](n2c(NC(=O)c3ccc(C(F)F)s3)nc3cc(C(=O)NC4CCCCC4)ccc32)C1 [Compound 70] | > 100 |
|  | C=CC(=O)N[C@H]1CC[C@@H](n2c(NC(=O)c3ccc(-c4cnco4)s3)nc3cc(CN[C@@H](C)C(C)(C)C)ccc32)CC1 [Compound 71] | 10 to 100 |
|  | C=CC(=O)Nc1cccc(-n2c(NC(=O)c3ccno3)nc3cc(CN[C@H]4CC[C@H](O)CC4)ccc32)c1 [Compound 74] | > 100 |
|  | C=CC(=O)Nc1cccc(-n2c(NC(=O)c3ccns3)nc3cc(CN[C@H]4CC[C@H](O)CC4)ccc32)c1 [Compound 75] | > 100 |
|  | C=CC(=O)Nc1cccc(-n2c(NC(=O)c3ccc(C(F)F)s3)nc3cc(OCc4ccccc4)ccc32)c1 [Compound 79] | > 100 |
| 10 to 100 | C=CC(=O)Nc1cccc(-n2c(NC(=O)c3cnc(C(C)C)s3)nc3cc(CN[C@@H](C)C(C)(C)C)ccc32)c1 [Compound 82] |  |
|  | C/C=C/C(=O)Nc1cccc(-n2c(NC(=O)c3ccc(C(F)F)s3)nc3cc(CN[C@@H](C)C(C)(C)C)ccc32)c1 [Compound 83] | > 100 |
